Here are results for two compounds from patent publication US20230391765A1, “HETEROBIFUNCTIONAL COMPOUNDS AS DEGRADERS OF ENL” (ICAHN SCHOOL OF MEDICINE AT MOUNT SINAI, priority 2020, published 2023).

The target of one test is T1, ENL (Homo sapiens, UniProt Q03111).
T1 construct: Cells were lysed and expression of endogenous ENL was assessed by Western blot analysis; host or cells: MV4;11
T1 sequence (Q03111 1-559): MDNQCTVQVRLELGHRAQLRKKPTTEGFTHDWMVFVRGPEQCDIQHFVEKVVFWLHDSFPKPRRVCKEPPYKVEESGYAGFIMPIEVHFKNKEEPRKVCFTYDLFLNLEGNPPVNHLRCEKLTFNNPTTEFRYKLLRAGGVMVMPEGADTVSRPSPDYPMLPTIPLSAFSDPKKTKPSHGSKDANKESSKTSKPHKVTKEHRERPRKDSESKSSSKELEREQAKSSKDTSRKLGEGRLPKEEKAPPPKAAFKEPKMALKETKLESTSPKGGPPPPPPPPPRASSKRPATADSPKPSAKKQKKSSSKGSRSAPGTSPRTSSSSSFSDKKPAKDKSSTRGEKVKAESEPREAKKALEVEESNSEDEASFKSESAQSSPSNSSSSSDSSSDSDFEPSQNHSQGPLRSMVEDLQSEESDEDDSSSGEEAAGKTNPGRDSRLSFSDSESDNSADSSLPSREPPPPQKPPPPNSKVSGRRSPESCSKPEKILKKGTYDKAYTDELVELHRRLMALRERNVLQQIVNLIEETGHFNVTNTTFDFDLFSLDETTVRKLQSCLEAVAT
The experiment in a line: Western blot of ENL protein levels in MV4; 11 cells. The note with it: 11 cells, 0.3, 1, 3 and 10 μM for 12 and 24 h. The test is classed as cell-based. An outline of the steps:
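MV4;11 cells treated versus DMSO at 1 and 10 μM for 24 h or 6 h, or at 0.3-30 μM for 24 h; time course at 4 μM over 12-36 h. Proteasome dependence tested with 1 μM degrader ± 1 μM MG132 for 6 h. ENL (and GAS41) levels in total lysates assessed by Western blot with GAPDH/β-actin loading controls.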
(In western blotting, separated proteins are transferred to a membrane and probed.)

The test system of test [1] is ENL-dependent MV4; 11 cells. The experiment in a line: Cell viability (CellTiter-Glo), MV4; 11 cells. The test is classed as cell-based. The conditions noted are these: 11 cells, 0.5, 1, 2 and 4 μM for 72 h. The essentials:
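MV4;11 cells (ENL-dependent) were seeded at 2×10^5 cells/mL and exposed to compound or DMSO, mostly for 72 h, with some runs at 3 or 6 days. Concentrations ranged from 10 nM to 10 μM depending on the run. Viability was read by CellTiter-Glo luminescence and normalized to DMSO.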

Test [2] concerns ENL-dependent MOLM13 leukemia cells. Briefly: Cell viability (CellTiter-Glo), MOLM13 cells. The test is classed as cell-based. The conditions noted are these: MOLM13 cells, 0.5, 1, 2 and 4 μM for 72 h. The protocol:
(§1) MV4; 11 (FIG. 13A), MOLM13 (FIG. 13B) and Jurkat (FIG. 13C) cells were seeded at 2×10^5 cells/mL density and treated with DMSO or indicated compounds 0.5, 1, 2 and 4 μM for 72 h. Cell viability was measured using CellTiter-Glo reagent (Promega) and relative cell viability was calculated by normalization to DMSO samples.
MV4; 11 or MOLM13 cells were seeded at 0.2×10^6 cells/mL density. Cells were treated with DMSO or ENL degraders at indicated concentrations. Each treatment was done in triplicates. After 72 h treatment, 100 μL of cell suspension from each treatment was mixed with 25 μL of CellTiter-Glo reagent (Promega) and incubated for 10 min before the luminescence signals were detected on a plate reader.
Background: ATP-based viability assays read luminescence as a measure of living cells.

Test [3] has as its system ENL-independent Jurkat cells. The experiment in a line: Cell viability (CellTiter-Glo), Jurkat cells. Type of test: cell-based. The note with it: Jurkat cells, 0.5, 1, 2 and 4 μM for 72 h. The protocol: as §1
ENL-dependent MV4; 11 and ENL-independent Jurkat cells were seeded at 2×10^5 cells/mL density and treated with DMSO or indicated compounds at 10 nM, 100 nM, 1 μM and 10 μM for 3 days (A) or 6 days (B). Cell viability was measured using CellTiter-Glo reagent (Promega) and relative cell viability was calculated by normalization to DMSO samples.

A further test concerns ENL target genes. Briefly: RT-qPCR of ENL target genes in MOLM13 cells. Type of test: cell-based. The conditions noted are these: MOLM13 cells, 8 μM for 24 h. The method, then: MOLM13 cells were treated with LQ076-122 (FIG. 14A) and LQ081-108 (FIG. 14B) at 0.5, 1, 2, 4, and 8 μM for 24 h. […] RT-qPCR analysis was performed to detect the mRNA levels of selected ENL target genes.
Total RNA was extracted using the RNeasy Plus kit (Qiagen) and reverse-transcribed using the iScript cDNA Synthesis kit (Bio-Rad). RT-qPCR was performed using the Power SYBR Green PCR Master Mix (Applied Biosystems) on the CFX96 Real-Time PCR system (Bio-Rad). Gene expressions were calculated following normalization to 18s rRNA amounts using the comparative cycle threshold (Ct) method.
On the technique in general: Real-time PCR tracks product formation cycle by cycle.

In a further test the test system is MV4; 11 cells. Briefly: Apoptosis assay (FITC Annexin V), MV4; 11 cells. The test is classed as cell-based. The conditions noted are these: 11 cells, 1, 2 and 4 μM for 24 h. The protocol:
(§2) Apoptotic cells were measured by the FITC Annexin V Apoptosis Detection Kit (BD Biosciences).
(§3) MV4; 11 or MOLM13 cells were seeded at 0.2×10^6 cells/mL density. Cells were treated with DMSO or ENL degraders at indicated concentrations. Each treatment was done in triplicates. After 24 h treatment, cells were collected and washed with ice-cold PBS once and resuspended in 250 μL of 1× binding buffer containing 5 μL of FITC-Annexin V and PI (BD Biosciences). After 15 min incubation at room temperature in the dark, 250 μL of 1× binding buffer was added and flow cytometry analysis was performed.

Another test deals with MOLM13 cells. Briefly: Apoptosis assay (FITC Annexin V), MOLM13 cells. Type of test: cell-based. The note with it: MOLM13 cells, 1, 2 and 4 μM for 24 h. The method, then:
as §2, §3

Test [4] concerns ENL-dependent MLL-rearranged leukemia cells. The conditions noted are these: cited from earlier work.

With `Cc1ncsc1-c1ccc([C@H](C)NC(=O)[C@H]2C[C@H](O)CN2C(=O)[C@@H](NC(=O)CCCCCCCCCCNC(=O)c2ccc(C(=O)Nc3ccc4[nH]c(CN5CCC[C@@H]5C)nc4c3)cc2)C(C)(C)C)cc1` [LQ081-106], at ENL, the “reduction of ENL protein levels” value is reported as “did not affect ENL protein levels”. The “suppression of cell growth (relative cell viability)” value in test [1], in test [2] and in test [3] was “did not significantly affect cell growth” each time. In addition, the “ENL target gene expression (mRNA levels)” value in the test with ENL target genes is recorded as “did not dramatically affect these genes”.

On to `C[C@H]1CCCN1Cc1nc2cc(NC(=O)c3ccc4c(cnn4C)c3)ccc2[nH]1` [SGC-iMLLT, reference compound], for which the “ENL target gene expression (mRNA levels)” value with ENL target genes is “did not dramatically affect these genes”. Further, the induction of apoptosis result is on record as “but not the negative control compound LQ108-4 or SGC-iMLLT, induced apoptosis” in the test with MV4; 11 cells and “but not the negative control compound LQ108-4 or SGC-iMLLT, induced apoptosis” in the test on MOLM13 cells. For the same compound, in test [4], the “inhibition of cell growth” value is “largely ineffective in inhibiting the growth”.
